Common to all, as to experiment: Competitive isoTOP-ABPP in situ (fragment-treated cells)
Common to all, as to format: cell-based

For test [1], the target named is cysteines in MDA-MB-231 and Ramos cells (Homo sapiens, UniProt Q9Y5S2).
In test [2] the target is cysteines in MDA-MB-231 and Ramos cells (Homo sapiens, UniProt O95881). Conditions: 200 μM, insitu, 231.
Test [3] addresses T1, cysteines in MDA-MB-231 and Ramos cells (Homo sapiens, UniProt Q6QNY0).
T1 sequence (Q6QNY0 1-202): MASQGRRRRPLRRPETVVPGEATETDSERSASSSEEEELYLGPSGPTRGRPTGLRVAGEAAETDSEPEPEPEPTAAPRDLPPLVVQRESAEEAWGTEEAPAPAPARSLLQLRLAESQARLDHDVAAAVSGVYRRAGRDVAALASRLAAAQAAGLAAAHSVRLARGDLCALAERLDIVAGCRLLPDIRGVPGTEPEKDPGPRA
Conditions: 200 μM, insitu.

Test [4] concerns the target T2, cysteines in MDA-MB-231 and Ramos cells (Homo sapiens, UniProt Q02556).
T2 sequence (Q02556 1-426): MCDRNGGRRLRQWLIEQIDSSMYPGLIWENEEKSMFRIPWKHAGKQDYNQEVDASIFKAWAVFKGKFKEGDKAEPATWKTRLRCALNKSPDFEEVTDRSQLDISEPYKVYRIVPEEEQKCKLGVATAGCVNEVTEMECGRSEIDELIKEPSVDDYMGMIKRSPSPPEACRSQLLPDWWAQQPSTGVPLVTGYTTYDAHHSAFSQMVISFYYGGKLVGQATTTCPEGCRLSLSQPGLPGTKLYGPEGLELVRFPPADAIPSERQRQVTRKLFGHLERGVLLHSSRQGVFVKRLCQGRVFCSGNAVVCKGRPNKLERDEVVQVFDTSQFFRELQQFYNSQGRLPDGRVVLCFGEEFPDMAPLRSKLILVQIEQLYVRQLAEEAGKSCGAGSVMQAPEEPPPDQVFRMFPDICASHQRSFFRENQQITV
Conditions: 200 μM, insitu, ramos.

Test [5] addresses T3, cysteines in MDA-MB-231 and Ramos cells (Homo sapiens, UniProt Q8TD19).
T3 sequence (Q8TD19 1-979): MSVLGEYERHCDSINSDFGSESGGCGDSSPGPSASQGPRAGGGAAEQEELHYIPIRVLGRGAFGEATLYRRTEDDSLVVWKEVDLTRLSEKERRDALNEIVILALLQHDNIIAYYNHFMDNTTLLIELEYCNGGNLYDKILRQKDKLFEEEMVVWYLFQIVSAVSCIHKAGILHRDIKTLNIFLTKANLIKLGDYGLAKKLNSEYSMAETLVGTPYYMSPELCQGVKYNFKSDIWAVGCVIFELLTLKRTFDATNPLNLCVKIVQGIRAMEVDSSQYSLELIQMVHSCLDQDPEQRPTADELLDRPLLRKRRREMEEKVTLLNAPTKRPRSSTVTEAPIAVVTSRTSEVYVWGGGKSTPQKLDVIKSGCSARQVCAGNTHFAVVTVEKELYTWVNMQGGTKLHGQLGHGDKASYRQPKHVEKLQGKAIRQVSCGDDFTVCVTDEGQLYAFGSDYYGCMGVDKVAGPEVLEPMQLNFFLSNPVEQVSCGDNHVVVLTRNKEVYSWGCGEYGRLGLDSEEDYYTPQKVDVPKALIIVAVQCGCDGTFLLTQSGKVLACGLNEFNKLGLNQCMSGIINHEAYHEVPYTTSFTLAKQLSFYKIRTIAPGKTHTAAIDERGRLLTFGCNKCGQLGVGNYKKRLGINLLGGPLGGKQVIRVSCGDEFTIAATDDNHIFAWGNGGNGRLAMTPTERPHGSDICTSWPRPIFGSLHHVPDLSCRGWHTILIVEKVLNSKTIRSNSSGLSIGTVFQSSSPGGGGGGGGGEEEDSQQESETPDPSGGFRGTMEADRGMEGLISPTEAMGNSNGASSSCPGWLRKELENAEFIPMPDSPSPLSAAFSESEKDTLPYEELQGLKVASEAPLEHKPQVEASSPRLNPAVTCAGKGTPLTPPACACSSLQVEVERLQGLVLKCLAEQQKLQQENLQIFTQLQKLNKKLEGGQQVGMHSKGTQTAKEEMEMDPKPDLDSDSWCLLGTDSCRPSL
Conditions: 200 μM, insitu.

Test [6] concerns the target T4, cysteines in MDA-MB-231 and Ramos cells (Homo sapiens, UniProt O95833).
T4 sequence (O95833 1-236): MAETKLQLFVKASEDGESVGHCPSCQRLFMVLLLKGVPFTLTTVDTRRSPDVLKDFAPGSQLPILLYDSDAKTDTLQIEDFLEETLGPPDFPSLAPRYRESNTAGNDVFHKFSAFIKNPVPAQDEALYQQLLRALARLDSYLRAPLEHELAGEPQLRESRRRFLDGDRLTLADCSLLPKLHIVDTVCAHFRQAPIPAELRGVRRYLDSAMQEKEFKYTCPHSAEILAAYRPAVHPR
Conditions: 200 μM, insitu, 231.

This note sets out measurements from US10670605B2, “Cysteine reactive probes and uses thereof” (The Scripps Research Institute, priority 2015, dated 2020).

Chain of cysteines in MDA-MB-231 and Ramos cells (Homo sapiens, UniProt Q9Y5S2) (Q9Y5S2 whole entry): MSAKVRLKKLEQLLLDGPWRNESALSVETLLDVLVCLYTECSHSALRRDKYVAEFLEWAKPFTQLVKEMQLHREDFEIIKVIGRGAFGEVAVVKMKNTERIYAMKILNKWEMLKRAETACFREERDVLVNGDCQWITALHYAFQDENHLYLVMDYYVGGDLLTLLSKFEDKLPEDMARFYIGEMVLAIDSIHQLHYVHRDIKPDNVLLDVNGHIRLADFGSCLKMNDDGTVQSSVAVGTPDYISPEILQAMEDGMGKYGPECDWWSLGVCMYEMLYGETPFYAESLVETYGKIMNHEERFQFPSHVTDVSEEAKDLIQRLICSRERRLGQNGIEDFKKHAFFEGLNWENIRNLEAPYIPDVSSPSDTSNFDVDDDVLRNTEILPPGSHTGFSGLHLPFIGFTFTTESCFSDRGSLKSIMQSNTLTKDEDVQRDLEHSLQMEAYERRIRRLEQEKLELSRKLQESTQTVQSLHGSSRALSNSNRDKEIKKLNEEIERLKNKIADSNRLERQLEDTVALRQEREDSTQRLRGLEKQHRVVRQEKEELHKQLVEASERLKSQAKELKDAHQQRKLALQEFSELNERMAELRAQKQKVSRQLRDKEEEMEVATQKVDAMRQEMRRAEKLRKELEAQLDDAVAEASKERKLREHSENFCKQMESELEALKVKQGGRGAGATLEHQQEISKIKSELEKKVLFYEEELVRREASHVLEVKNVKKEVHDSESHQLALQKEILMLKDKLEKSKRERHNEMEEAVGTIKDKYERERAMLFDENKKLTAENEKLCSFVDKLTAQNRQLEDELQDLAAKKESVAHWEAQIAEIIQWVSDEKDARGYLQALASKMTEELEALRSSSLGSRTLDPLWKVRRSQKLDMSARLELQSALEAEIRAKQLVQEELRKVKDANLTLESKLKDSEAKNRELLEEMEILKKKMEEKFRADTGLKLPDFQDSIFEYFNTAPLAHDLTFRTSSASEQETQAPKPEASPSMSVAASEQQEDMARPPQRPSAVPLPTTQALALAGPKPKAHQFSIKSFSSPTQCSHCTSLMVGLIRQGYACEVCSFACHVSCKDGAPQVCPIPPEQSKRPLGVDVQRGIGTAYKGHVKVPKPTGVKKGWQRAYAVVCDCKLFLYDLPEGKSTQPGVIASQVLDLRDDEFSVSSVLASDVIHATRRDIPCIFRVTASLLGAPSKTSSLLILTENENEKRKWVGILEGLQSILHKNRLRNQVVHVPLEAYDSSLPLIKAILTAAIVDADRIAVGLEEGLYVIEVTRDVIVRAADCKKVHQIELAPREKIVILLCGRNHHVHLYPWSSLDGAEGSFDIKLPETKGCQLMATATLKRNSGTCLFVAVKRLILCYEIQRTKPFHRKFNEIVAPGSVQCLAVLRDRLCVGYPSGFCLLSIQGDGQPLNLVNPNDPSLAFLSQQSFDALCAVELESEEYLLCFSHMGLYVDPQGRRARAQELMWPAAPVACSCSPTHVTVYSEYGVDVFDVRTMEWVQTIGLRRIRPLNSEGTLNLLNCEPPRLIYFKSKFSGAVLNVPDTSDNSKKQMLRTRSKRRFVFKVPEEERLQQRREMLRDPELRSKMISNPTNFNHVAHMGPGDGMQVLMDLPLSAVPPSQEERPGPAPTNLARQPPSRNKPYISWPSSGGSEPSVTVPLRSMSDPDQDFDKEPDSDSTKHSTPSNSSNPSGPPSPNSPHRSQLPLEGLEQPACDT
Chain of cysteines in MDA-MB-231 and Ramos cells (Homo sapiens, UniProt O95881) (O95881 27-172): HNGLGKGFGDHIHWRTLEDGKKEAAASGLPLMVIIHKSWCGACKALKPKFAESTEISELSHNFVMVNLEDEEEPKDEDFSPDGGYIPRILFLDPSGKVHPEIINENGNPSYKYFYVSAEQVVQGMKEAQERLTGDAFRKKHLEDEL

`COc1ccc2c(c1)CCCN2C(=O)CCl` [compound 2]: the “isoTOP-ABPP reactivity Q9Y5S2_C1517 CDC42BPB” value in test [1] (200 μM, insitu, 231) turned out to be 20.0.
For `COc1ccc(C2CC(c3cccs3)=NN2C(=O)CCl)cc1` (centres unmarked) [compound 4], the “isoTOP-ABPP reactivity Q9Y5S2_C1517 CDC42BPB” value in test [1] (100 μM in situ 231) worked out at 20.0.
With `Cn1cc(S(=O)(=O)N2CCOCC2)cc1C(=O)NC(=O)CCl` [compound 11], the “isoTOP-ABPP ratio, cysteine Q9Y5S2_C1517” value in test [1] (100 μM in situ 231) amounted to 1.2.
For `O=C(CCl)NC(=O)NC12CC3CC(CC(C3)C1)C2` [compound 12], the “isoTOP-ABPP ratio, cysteine O95881_C66” value in test [2] is listed as 20.0.
On to `O=C(CCl)NCCc1c[nH]c2ccccc12` [compound 13], for which the “isoTOP-ABPP ratio, cysteine O95881_C66” value in test [2] was determined as 20.0. Besides, in test [3] (ramos), the “isoTOP-ABPP ratio, cysteine Q6QNY0_C168” value turned out to be 1.2. For the same compound, the “isoTOP-ABPP ratio, cysteine Q02556_C306” value in test [4] amounted to 1.5. Moreover, the “isoTOP-ABPP ratio, cysteine Q8TD19_C623” value in test [5] (ramos) was 20.0.
On to `O=C(CCl)NC12CC3CC(CC(C3)C1)C2` [compound 21], for which the “isoTOP-ABPP ratio, cysteine O95833_C22” value in test [6] was determined as 1.0. The “isoTOP-ABPP ratio, cysteine Q8TD19_C623” value in test [5] (231) was 0.8.
As for `O=C(CCl)N1CCN(CC(=O)N2CCOCC2)CC1` [compound 29], the “isoTOP-ABPP ratio Q6QNY0_C168” value in test [3] (ramos) turned out to be 1.6. In test [4], the “isoTOP-ABPP ratio, Q02556_C306” value is 1.4.
Turning to `C=CC(=O)N(Cc1cccnc1)c1cc(C(F)(F)F)cc(C(F)(F)F)c1` [compound 31], the “isoTOP-ABPP ratio, Q02556_C306” value in test [4] was determined as 2.0. Besides, the “isoTOP-ABPP ratio O95833_C22” value in test [6] was 0.5. Also, the entries for the “isoTOP-ABPP ratio Q8TD19_C623” value in test [5] (231) and in test [5] (ramos) were 0.7 and 1.4, respectively.
Regarding `C=CC(=O)Nc1cc(F)c(N2CCN(C(=O)OC(C)(C)C)CC2)c(F)c1` [compound 38], the “isoTOP-ABPP ratio O95881_C66” value in test [2] worked out at 1.0. Moreover, in test [3] (231), the “isoTOP-ABPP ratio Q6QNY0_C168” value came out at 1.0.
Consider `Cc1ccc(C=C(C#N)C(=O)NCCN2CCOCC2)cc1` [compound 41], for which the “isoTOP-ABPP ratio O95881_C66” value in test [2] is recorded as 1.0. In addition, the “isoTOP-ABPP ratio Q8TD19_C623” value in test [5] (231) is reported as 0.6. In addition, the “isoTOP-ABPP ratio Q9Y5S2_C1517” value in test [1] (200 μM, insitu, 231) is listed as 0.4.
For `CC1CCc2ccccc2N1C(=O)CCl` (centres unmarked) [compound 45], the “isoTOP-ABPP ratio O95833_C22” value in test [6] was determined as 13.8. Also, in test [1] (200 μM, insitu, 231), the “isoTOP-ABPP ratio Q9Y5S2_C1517” value was determined as 20.0.
